In US20100015058A1, “RADIOLABELED BBN-RGD HETERODIMERS FOR CANCER TARGETING” (STANFORD UNIVERSITY, priority 2008, published 2010):
One block for each compound: values may come before it.

Key:
[1] = Octanol/water partition coefficient; type: physicochemical; details: octanol / PBS pH 7.4, room temperature
Protocol: The mixture was vigorously vortexed for 1 min at room temperature. After centrifugation at 12,500 rpm for 5 min in an Eppendorf microcentrifuge (model 5415R; Brinkman), 200-μL aliquots of both layers were measured using a 7-counter (Packard Instruments). The experiment was performed in triplicate.

PC-3 tumor cells = assay: Cell uptake assay on PC-3 tumor cells; type: cell-based, human; details: PC-3 cells, 37° C., within 30 min of incubation, plateau afterward
Protocol: In the cell uptake experiment, PC-3 cells were seeded into 12-well plates at a density of 5×10^5 cells per well for overnight incubation. Cells were rinsed 3 times with phosphate-buffered saline (PBS), followed by the addition of ^18F-FB-RGD, ^18F-FB-BBN, or ^18F-BBN-RGD to the cultured wells in triplicate (about 2 μCi/well). […] The cell lysate was collected in measurement tubes for counting. The cell uptake was normalized in terms of added radioactivity.
The cell uptake studies were performed as we have previously described with some modifications (Chen et al., Mol Imaging Biol. (2004) […]; Cai et al., (2006) J. Nuc. Med. 47: 1172-1180, incorporated herein by reference in their entireties). Briefly, PC-3 cells were seeded into 12-well plates at a density of 5×10^5 cells per well and incubated (about 18 kBq/well) with ^68Ga-labeled tracers at 37° C. for 15, 30, 60, and 120 min. Tumor cells were then washed three times with chilled PBS and harvested by trypsinization with 0.25% trypsin/0.02% EDTA (Invitrogen). The cell suspensions were collected and measured in a y counter (Packard, Meriden, Conn.). The cell uptake was expressed as the percent added dose (% AD) after decay correction. Experiments were performed twice with triplicate wells. For efflux studies, ^68Ga-labeled tracers (about 18 kBq/well) were first incubated with PC-3 cells in 12-well plates for 1 h at 37° C. to allow internalization. Then cells were washed twice with PBS, and incubated with cell culture medium for 15, 30, and 60 min. After washing three times with PBS, cells were harvested by trypsinization with 0.25% trypsin/0.02% EDTA. The cell suspensions were collected and measured in a γ counter. Experiments were performed twice with triplicate wells. Data are expressed as percent added dose after decay correction.

[2] = Small-animal PET of PC-3 tumor-bearing mice; details: male, athymic nude, mouse, in vivo, iv, 3.7 MBq, total radioactivity, PC-3 tumor uptake, PET ROI
Protocol: (a) PET scans and image analysis were performed using a micro-PET R4 rodent model scanner (Siemens Medical Solutions) as reported by Li et al., J. Nucl. Med. (2007) 48: 1162-1171 and Wu et al., J Nucl. Med. (2005) 46: 1707-1718, both of which are incorporated herein by reference in their entireties). […] Five-minute static PET images were then acquired at 0.5, 1, and 2 h after injection. The images were reconstructed by a 2-dimensional ordered-subsets expectation maximum (OSEM) algorithm. No attenuation or scatter correction was applied. […] The 5-min static PET scans were then acquired at 1 hr after injection. For each small-animal PET scan, regions of interest (ROIs) were drawn over the tumor, normal tissue, and major organs by using vendor software (ASI Pro 5.2.4.0) on decay-corrected whole-body coronal images. The average radioactivity concentration (accumulation) within a tumor or an organ was obtained from mean pixel values within the multiple ROI volume, which were converted to counts/mL/min using a conversion factor. Assuming a tissue density of 1 g/mL, the ROIs were converted to counts/g/min, and then divided by the administered activity to obtain an imaging ROI-derived percentage injected dose per gram of tissue (% ID/g).
For dynamic PET, 30-min scans (1×30 s, 4×1 min, 1×1.5 min, 4×2 min, 5×3 min; total 15 frames) were started 1 min after injection, and two 5-min static PET images were also acquired at 1 h and 2 h after injection. […] For each small-animal PET scan, regions of interest (ROIs) were drawn over the tumor, normal tissue, and major organs using vendor software ASI Pro 5.2.4.0 on decay-corrected whole-body coronal images. The maximum radioactivity concentrations (accumulation) within a tumor or an organ were obtained from mean pixel values within the multiple ROI volume, and were converted to megabecquerels per milliliter per minute using a conversion factor. These values were then divided by the administered activity to obtain (assuming a tissue density of 1 g/ml) an image ROI-derived percent injected dose per gram (% ID/g).
The images were reconstructed using a 2-dimensional ordered-subsets expectation maximum algorithm without attenuation or scatter correction.
For each small-animal PET scan, regions of interest were drawn over each tumor, over normal tissue, and over major organs using vendor software (ASI Pro, version 5.2.4.0) on decay-corrected whole-body coronal images. The maximum radioactivity concentration (accumulation) within a tumor or an organ was obtained from the mean pixel values within the multiple-region-of-interest volume, which were converted to MBq/mL/min using a conversion factor. Assuming a tissue density of 1 g/mL, the regions of interest were converted to MBq/g/min and then divided by the administered activity to obtain an imaging region-of-interest-derived percentage injected dose (% ID)/g.

DU-145 tumor = type: in vivo, mice; details: integrin αvβ3-positive, low GRPR-expressing tumor
Protocol: The PC-3 and DU-145 human prostate carcinoma cell lines were purchased from American Type Culture Collection. PC-3 cells were grown in F-12K nutrient mixture (Kaighn's modification) (Invitrogen Corp.), and DU-145 cells were grown in minimum essential medium (Eagle) mixture supplemented with 10% (v/v) fetal bovine serum (Invitrogen) at 37° C. with 5% CO2. The PC-3 and DU-145 tumor models were generated by subcutaneous injection of 5×10^6 tumor cells into the front flank of male athymic nude mice (Harlan).
No attenuation or scatter correction was applied.

[3] = Small-animal PET of MDA-MB-435 tumor-bearing mice; details: female, athymic nude, mouse, in vivo, iv, total radioactivity; 30 min p.i., BBN tracer control study, FIG. 44B; read-out: MDA-MB-435 tumor uptake
GRPR = molecular target: T1, GRPR (Homo sapiens, UniProt P30550); assay: Displacement cell-binding assay with ^125I-[Tyr4]BBN on PC-3 cells; details: FIG. 34B, PEG3-Glu-RGD-BBN series; read-out: IC50, displacement of ^125I-[Tyr4]BBN from PC-3 cells
T1 construct: Experiments were performed on GRPR-expressing PC-3 cells following our previously described procedure; endogenous in cells; host or cells: PC-3 human prostate carcinoma cells
Protocol: Experiments were performed with triplicate samples.
BBN as the radioligand. […] Experiments were performed twice with triplicate samples.

integrin αvβ3 = molecular target: T2, integrin αvβ3 (Homo sapiens, UniProt P05106+P06756); assay: Competitive cell-binding assay with ^125I-c(RGDyK) on U87MG cells; details: FIG. 14A
T2 construct: Experiments were performed on U87MG human glioma cells expressing integrin αvβ3 as previously described; endogenous in cells; host or cells: U87MG human glioblastoma (glioma) cells

SMILES: CSCC[C@H](NC(=O)[C@H](CC(C)C)NC(=O)[C@H](Cc1c[nH]cn1)NC(=O)CNC(=O)[C@@H](NC(=O)[C@H](C)NC(=O)[C@H](Cc1c[nH]c2ccccc12)NC(=O)[C@H](CCC(N)=O)NC(=O)CCCCCNC(=O)c1ccc(F)cc1)C(C)C)C(N)=O [^18F-FB-BBN, reference compound]
logP [1]: 1.49 ± 0.02 | cell uptake (PC-3 tumor cells): about 7% | tissue uptake at 0.5 h ([2]; 30 min after injection of 3.7 MBq): 0.63 ± 0.16 %ID/g | tissue uptake at 1 h ([2]; 60 min after injection of 3.7 MBq, no blocking): 0.44 ± 0.1 %ID/g | tissue uptake at 2 h ([2]; 120 min after injection of 3.7 MBq): 0.29 ± 0.08 %ID/g | detection of the DU-145 tumor by PET (DU-145 tumor): unable to detect the DU-145 tumor | tissue uptake at 0.5 h [3]: 0.45 ± 0.11 %ID/g

IC50 (GRPR): 85.4 ± 1.95 nM
SMILES: CSCC[C@H](NC(=O)[C@H](CC(C)C)NC(=O)[C@H](Cc1c[nH]cn1)NC(=O)CNC(=O)[C@@H](NC(=O)[C@H](C)NC(=O)[C@H](Cc1c[nH]c2ccccc12)NC(=O)[C@H](CCC(N)=O)NC(=O)CCCCCNC(=O)CC[C@H](NC(=O)COCCOCCOCCN)C(=O)NCCCC[C@@H]1NC(=O)[C@@H](Cc2ccc(O)cc2)NC(=O)[C@H](CC(=O)O)NC(=O)CNC(=O)[C@H](CCCNC(=N)N)NC1=O)C(C)C)C(N)=O [PEG3-Glu-RGD-BBN]

SMILES: CSCC[C@H](NC(=O)[C@H](CC(C)C)NC(=O)[C@H](Cc1c[nH]cn1)NC(=O)CNC(=O)[C@@H](NC(=O)[C@H](C)NC(=O)[C@H](Cc1c[nH]c2ccccc12)NC(=O)[C@H](CCC(N)=O)NC(=O)CCCCCN)C(C)C)C(N)=O [Aca-BBN(7-14)]
binding inhibition of ^125I-c(RGDyK) (integrin αvβ3): did not show significant binding inhibition
